Laboratory results reported in patent US8450317B2, “CXCR3 receptor antagonists” (Boehringer Ingelheim International GmbH, priority 2009, dated 2013).
pIC50: −log10 of the molar value.

Target: CXCR3 (Macaca fascicularis, UniProt A0A2K5UV19)
Assay: functional cellular assay measuring calcium flux in CXCR3 transfected cells (block of CXCR3/IP-10 interaction)
Format: cell-based, Cyno
Settings: IP-10 induced intracellular calcium flux; Cyno-CHO cells stably expressing recombinant CXCR3 and G-alpha-16; IP-10 at EC80; read-out: IC50
Method: Compounds are assessed for the ability to block the interaction of CXCR3 and IP-10 in a functional cellular assay measuring calcium flux in CXCR3 transfected cells.
Cyno-CHO cells, stably expressing recombinant CXCR3 and G-alpha-16 are grown in F12 medium (Mediatech #45000-360) supplemented with 10% (V/V) FBS (Mediatech #35-01500), 1% Geneticin (Invitrogen #10131-027) and 0.2% Zeocin (Invitrogen #R250-05). The cells are spun down and re-suspended in growth media to a concentration of […]. 25 microL of cell suspension is added to each well of a BD-384-well TC treated plate, providing 12,000 cells/well. The plate is incubated at 37° C./5% CO2 overnight. On the day of the assay, the plates are removed, the media is flicked out and 25 microL of Ca-4 dye in assay buffer (HBSS, 10 mM HEPES ph 7.4), containing 2 mM probenacid is added to each well. The cell assay plates are then incubated at 37° C./5% CO2 for one hour.
Test compounds are dissolved in DMSO and diluted to 1.045 mM in DMSO. Just prior to assay, 2.75 microL of appropriately diluted test compound are added to each well of a 384 well plate containing 45 microL of HBSS buffer. After mixing, 5 microL of diluted compound are added to each well of the cell assay plate for a final assay concentration of 10 microM. The plate is incubated at room temperature for 15 min. 10 microL of IP-10 stock solution in HBSS (4× EC80 concentration) are added to each well of the cell assay plate except those cells reserved as blank wells containing buffer only. Intracellular calcium flux is recorded on the HAMAMTSU FDSS6000, using excitation at 480 nm and emission at 540 nm. Data are analyzed using Activity Base software.
In general, the preferred potency range (IC50) of compounds in the above assay is between 1 nM to 3 μM, and the most preferred potency range is 1 nM to 200 nM.

CXCR3, sequence (A0A2K5UV19 entry or part of it): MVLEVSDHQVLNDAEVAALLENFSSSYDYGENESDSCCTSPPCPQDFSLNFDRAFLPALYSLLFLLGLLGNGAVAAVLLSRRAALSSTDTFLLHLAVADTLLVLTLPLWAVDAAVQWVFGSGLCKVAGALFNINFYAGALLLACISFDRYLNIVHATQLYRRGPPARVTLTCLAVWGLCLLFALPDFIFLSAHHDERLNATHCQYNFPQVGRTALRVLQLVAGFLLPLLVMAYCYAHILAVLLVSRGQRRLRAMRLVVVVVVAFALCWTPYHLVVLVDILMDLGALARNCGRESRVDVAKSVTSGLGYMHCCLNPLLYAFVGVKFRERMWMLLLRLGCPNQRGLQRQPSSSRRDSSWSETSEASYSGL

`CC1CN(c2ccc(C(F)(F)F)cc2-c2cnc(N3CCC(S(C)(=O)=O)CC3)nc2)CCN1C(=O)CN1Cc2ccccc2C1=O` (stereo not drawn) [2-(2-{2-methyl-4-[2-{2-[4-(methylsulfonyl)piperidin-1-yl]pyrimidin-5-yl}-4-(trifluoromethyl)phenyl]piperazin-1-yl}-2-oxoethyl)-2,3-dihydro-1H-isoindol-1-one] and `CC1CN(c2ccc(C(F)(F)F)cc2-c2cnc(N3CCC(S(C)(=O)=O)CC3)nc2)CCN1C(=O)CN1CCCCC1=O` (stereo not drawn) [1-(2-{2-methyl-4-[2-{2-[4-(methylsulfonyl)piperidin-1-yl]pyrimidin-5-yl}-4-(trifluoromethyl)phenyl]piperazin-1-yl}-2-oxoethyl)piperidin-2-one] are within 0.2 log units of each other in pIC50: 8.15 for the first, 7.96 for the second.

`O=C(Cn1ccc2cccnc21)N1CCN(c2ccc(F)cc2-c2cnc(N3CCC(O)CC3)nc2)CC1` [1-(4-{4-fluoro-2-[2-(4-hydroxypiperidin-1-yl)pyrimidin-5-yl]phenyl}piperazin-1-yl)-2-(1H-pyrrolo[2,3-b]pyridin-1-yl)ethanone] and `CC1CN(c2ccc(C(F)(F)F)cc2-c2cnc(N3CCC(O)CC3)nc2)CCN1C(=O)Cn1ccc2cccnc21` (stereo not drawn) [1-(4-{2-[2-(4-hydroxypiperidin-1-yl)pyrimidin-5-yl]-4-(trifluoromethyl)phenyl}-2-methylpiperazin-1-yl)-2-(1H-pyrrolo[2,3-b]pyridin-1-yl)ethanone] are within 0.2 log units of each other in pIC50: 8.10 for the first, 8.00 for the second.

First: CNc1ncc(-c2cc(C(F)(F)F)ccc2N2CCN(C(=O)Cn3nc(C)cc3C)CC2)cn1 [2-(3,5-Dimethyl-pyrazol-1-yl)-1-{4-[2-(2-methylamino-pyrimidin-5-yl)-4-trifluoromethyl-phenyl]-piperazin-1-yl}-ethanone]
Second: COc1ncc(-c2cc(Cl)ccc2N2CCN(C(=O)Cn3nc(C)cc3C)CC2)cn1 [1-{4-[4-Chloro-2-(2-methoxy-pyrimidin-5-yl)-phenyl]-piperazin-1-yl}-2-(3,5-dimethyl-pyrazol-1-yl)-ethanone]
The pIC50 of the first is 0.23 log units higher: 8.15 for the first, 7.92 for the second.

First: O=C(Cn1cnc2cccnc21)N1CCN(c2ccc(F)cc2-c2cnc(N3CCOCC3)nc2)CC1 [1-(4-{4-fluoro-2-[2-(morpholin-4-yl)pyrimidin-5-yl]phenyl}piperazin-1-yl)-2-(3H-imidazo[4,5-b]pyridin-3-yl)ethanone]
Second: O=C(Cn1ccc2cccnc21)N1CCN(c2ccccc2-c2cnc(N3CCOCC3)nc2)CC1 [1-{4-[2-(2-Morpholin-4-yl-pyrimidin-5-yl)-phenyl]-piperazin-1-yl}-2-pyrrolo[2,3-b]pyridin-1-yl-ethanone]
The pIC50 of the first is 0.60 log units lower: 7.62 for the first, 8.22 for the second.

`O=C(Cn1ccc2cccnc21)N1CC=C(c2ccccc2-c2cnc(N3CCOCC3)nc2)CC1` [1-{4-[2-(2-Morpholin-4-yl-pyrimidin-5-yl)-phenyl]-3,6-dihydro-2H-pyridin-1-yl}-2-pyrrolo[2,3-b]pyridin-1-yl-ethanone] and `O=C(Cn1ccc2cccnc21)N1CCN(c2c(F)cccc2-c2cnc(N3CCOCC3)nc2)CC1` [1-{4-[2-Fluoro-6-(2-morpholin-4-yl-pyrimidin-5-yl)-phenyl]-piperazin-1-yl}-2-pyrrolo[2,3-b]pyridin-1-yl-ethanone] are within 0.2 log units of each other in pIC50: 7.70 for the first, 7.57 for the second.

Going from `Cc1cc(C)n(CC(=O)N2CCN(c3ccccc3-c3cnc(Oc4ccccc4)nc3)CC2)n1` [2-(3,5-Dimethyl-pyrazol-1-yl)-1-{4-[2-(2-phenoxy-pyrimidin-5-yl)-phenyl]-piperazin-1-yl}-ethanone] to `Cc1cc(C)n(CC(=O)N2CCN(c3ccccc3-c3cnc(N4CCOCC4)nc3)CC2)n1` [2-(3,5-Dimethyl-pyrazol-1-yl)-1-{4-[2-(2-morpholin-4-yl-pyrimidin-5-yl)-phenyl]-piperazin-1-yl}-ethanone], the pIC50 rises from 7.41 to 8.05 (0.64 log units).

Compared with `Cc1ocnc1C(=O)N(C)CC(=O)N1CCN(c2ccc(F)cc2C(=O)Nc2nc3c(s2)CN(C)CC3)C[C@H]1C` [N-{2-[(2R)-4-{4-fluoro-2-[(5-methyl-4,5,6,7-tetrahydro[1,3]thiazolo[5,4-c]pyridin-2-yl)carbamoyl]phenyl}-2-methylpiperazin-1-yl]-2-oxoethyl}-N,5-dimethyl-1,3-oxazole-4-carboxamide], `C[C@H]1CN(c2ccc(F)cc2C(=O)Nc2nc3c(s2)CN(C)CC3)CCN1C(=O)Cn1cnc2cccnc21` [5-fluoro-2-[(3S)-4-(3H-imidazo[4,5-b]pyridin-3-ylacetyl)-3-methylpiperazin-1-yl]-N-(5-methyl-4,5,6,7-tetrahydro[1,3]thiazolo[5,4-c]pyridin-2-yl)benzamide] is 0.36 log units higher in pIC50: 7.46 for the first, 7.82 for the second. The second is the more potent here.

Compared with `COc1cc(-c2ccccc2N2CCN(C(=O)Cn3ccc4cccnc43)CC2)ccn1` [1-{4-[2-(2-Methoxy-pyridin-4-yl)-phenyl]-piperazin-1-yl}-2-pyrrolo[2,3-b]pyridin-1-yl-ethanone], `CNc1ncc(-c2cc(C#N)ccc2N2CCN(C(=O)Cn3ccc4cccnc43)CC2)cn1` [3-(2-Methylamino-pyrimidin-5-yl)-4-[4-(2-pyrrolo[2,3-b]pyridin-1-yl-acetyl)-piperazin-1-yl]-benzonitrile] is 0.48 log units higher in pIC50: 7.62 for the first, 8.10 for the second. The second is the more potent here.

Going from `CC1CN(c2ccccc2-c2cnc(S(C)(=O)=O)nc2)CCN1C(=O)Cn1c(=O)[nH]c2ccccc21` (stereo not drawn) [1-[2-(2-methyl-4-{2-[2-(methylsulfonyl)pyrimidin-5-yl]phenyl}piperazin-1-yl)-2-oxoethyl]-1,3-dihydro-2H-benzimidazol-2-one] to `C[C@@H]1CN(c2ccc(F)cc2C(=O)Nc2nc3c(s2)CN(C)CC3)CCN1C(=O)Cn1c(=O)[nH]c2ccccc21` [5-fluoro-2-{(3R)-3-methyl-4-[(2-oxo-2,3-dihydro-1H-benzimidazol-1-yl)acetyl]piperazin-1-yl}-N-(5-methyl-4,5,6,7-tetrahydro[1,3]thiazolo[5,4-c]pyridin-2-yl)benzamide], the pIC50 rises from 7.20 to 7.74 (0.54 log units). The second is the more potent here.

Going from `O=C(CN1CCCCC1=O)N1CCN(c2ccc(F)cc2-c2cnc(N3CCCC3)nc2)CC1` [1-[2-(4-{4-fluoro-2-[2-(pyrrolidin-1-yl)pyrimidin-5-yl]phenyl}piperazin-1-yl)-2-oxoethyl]piperidin-2-one] to `Cc1cc(C)n(CC(=O)N2CCN(c3ccccc3-c3cnc(N4CCCCC4)nc3)CC2)n1` [2-(3,5-Dimethyl-pyrazol-1-yl)-1-{4-[2-(2-piperidin-1-yl-pyrimidin-5-yl)-phenyl]-piperazin-1-yl}-ethanone], the pIC50 rises from 7.64 to 8.15 (0.51 log units). The second is the more potent here.

Compared with `Cc1cc(C)n(CC(=O)N2CCN(c3ccccc3-c3cnc(N4CCC(O)CC4)nc3)CC2)n1` [2-(3,5-Dimethyl-pyrazol-1-yl)-1-(4-{2-[2-(4-hydroxy-piperidin-1-yl)-pyrimidin-5-yl]-phenyl}-piperazin-1-yl)-ethanone], `Cc1cc(C)n(CC(=O)N2CCN(c3ccccc3-c3cnc(N4CCC(O)CC4)nc3)CC2C)n1` (stereo not drawn) [2-(3,5-dimethyl-1H-pyrazol-1-yl)-1-(4-{2-[2-(4-hydroxypiperidin-1-yl)pyrimidin-5-yl]phenyl}-2-methylpiperazin-1-yl)ethanone] is 0.26 log units lower in pIC50: 8.15 for the first, 7.89 for the second.

Going from `Cc1cc(C)n(CC(=O)N2CCN(c3ccccc3-c3cnc(N4CCCC(C(N)=O)C4)nc3)CC2)n1` (stereo not drawn) [1-[5-(2-{4-[2-(3,5-Dimethyl-pyrazol-1-yl)-acetyl]-piperazin-1-yl}-phenyl)-pyrimidin-2-yl]-piperidine-3-carboxylic acid amide] to `Cc1cc(C)n(CC(=O)N2CCN(c3ccccc3-c3cnc(N4CCN(C)CC4)nc3)CC2)n1` [2-(3,5-Dimethyl-pyrazol-1-yl)-1-(4-{2-[2-(4-methyl-piperazin-1-yl)-pyrimidin-5-yl]-phenyl}-piperazin-1-yl)-ethanone], the pIC50 falls from 8.05 to 7.40 (0.65 log units). The first is the more potent here.
